By IC50 is commonly meant the concentration that inhibits the measured activity by half.

The values that follow come from BindingDB's records for doi:10.7270/Q20P0XHD (Burnham Center For Chemical Genomics, 2011).

The assay has as its target T1, C-C chemokine receptor type 6 (Homo sapiens, UniProt P51684).
T1 sequence (P51684 whole entry): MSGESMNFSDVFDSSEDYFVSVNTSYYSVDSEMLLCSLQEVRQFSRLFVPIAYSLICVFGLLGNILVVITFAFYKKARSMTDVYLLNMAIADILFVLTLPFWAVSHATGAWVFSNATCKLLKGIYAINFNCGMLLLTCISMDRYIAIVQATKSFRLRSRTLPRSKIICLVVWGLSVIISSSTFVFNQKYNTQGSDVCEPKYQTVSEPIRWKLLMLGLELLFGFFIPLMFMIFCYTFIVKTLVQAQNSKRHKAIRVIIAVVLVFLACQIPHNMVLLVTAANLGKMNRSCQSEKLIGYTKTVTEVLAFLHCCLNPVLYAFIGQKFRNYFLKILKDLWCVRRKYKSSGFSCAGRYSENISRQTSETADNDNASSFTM
In words: CCR6 receptor antagonists, dose response, cell-based, luminescent beta-arrestin readout (AID 504728).
Compound `CN1C(=O)C(C2CC(c3ccc(Cl)cc3)N=N2)C(=O)N(C)C1=O` (centres undefined) [SMR000439471] came in with an IC50 of 14.9 µM.

As for `CN(C)c1nc(N=NCc2ccccc2O)nc(Nc2ccc(F)cc2)n1` [(6E)-6-[[2-[4-(dimethylamino)-6-(4-fluoroanilino)-1,3,5-triazin-2-yl]hydrazinyl]methylidene]cyclohexa-2,4-dien-1-one], the IC50 was above 66.6 µM.

For `O=C1C(/C=N/c2ccc(N3CCOCC3)cc2)=CC(Cc2ccccc2)C=C1[N+](=O)[O-]` (centres undefined) [SMR000231104], the IC50 is above 66.6 µM.

Consider `CCCC1CCC(=NNC(=S)NCCc2ccccc2)CC1` (centres undefined) [SMR000347544], for which the IC50 is above 66.6 µM.

`COc1cccc(CN=Nc2nc(Nc3ccccc3)nc(-n3nc(C)cc3C)n2)c1O` [(6E)-6-[[2-[4-(3,5-dimethylpyrazol-1-yl)-6-phenylazanyl-1,3,5-triazin-2-yl]hydrazinyl]methylidene]-2-methoxy-cyclohexa-2,4-dien-1-one] yielded an IC50 above 66.6 µM.

For `O=C1C([N+](=O)[O-])=CC=CC1CN=Nc1ccc2ccccc2n1` (centres undefined) [(6E)-2-nitro-6-[(2-quinolin-2-ylhydrazinyl)methylidene]cyclohexa-2,4-dien-1-one], the IC50 was above 66.6 µM.

Compound `O=C1Nc2ccc([N+](=O)[O-])cc2/C1=N/NC(=O)c1cc(-c2ccccc2Cl)nc2ccccc12` [2-(2-chlorophenyl)-N'-(2-keto-5-nitro-indol-3-yl)cinchoninohydrazide] came in with an IC50 above 66.6 µM.

The compound `COc1ccc(-n2c(O)c(CN=Nc3nc(C)cc(C)n3)c3ccccc3c2=O)cc1OC` [SMR000385482] yielded an IC50 of 0.594 µM.

Consider `O=C1C([N+](=O)[O-])=CC(Cl)=CC1CN=Nc1ccccn1` (centres undefined) [MLS000539830], for which the IC50 was above 66.6 µM.

As for `O=Nc1c(C2C(=O)Nc3cc(Br)ccc32)[nH]c2ccccc12` (centres undefined) [6-bromoindirubin-3-oxime], the IC50 was above 66.6 µM.

Turning to `Cc1cc(N=NCc2ccc(F)cc2)nc(-n2nc(C)cc2C)n1` [SMR000426945], the IC50 is above 66.6 µM.

`O=C1C=CC([N+](=O)[O-])=CC1CN=Nc1ccccn1` (centres undefined) [MLS000585015] returned an IC50 above 66.6 µM.

As for `CC(C)(C)C1CCC(=NNC(=S)NCc2ccccc2)CC1` (centres undefined) [SMR000377499], the IC50 is above 66.6 µM.

Turning to `C/C=C(\C)C(=O)OC1[C@H](OC(C)=O)C2(CO)C(CC1(C)C)C1=CCC3C4(C)CCC(O[C@@H]5O[C@H](C(=O)O)[C@@H](O[C@@H]6O[C@H](CO)[C@@H](O)[C@H](O)[C@H]6O)[C@H](O)[C@H]5O[C@H]5O[C@H](CO)[C@@H](O)[C@H](O)[C@H]5O)[C@](C)(CO)C4CCC3(C)[C@]1(C)C[C@H]2O` (some centres undefined) [MLS002695979], inhibition was half-maximal at 16.4 µM (IC50).

Consider `COC1=CC=CC(CN=Nc2nc(Nc3ccc([N+](=O)[O-])cc3)nc(N3CCCC3)n2)C1=O` (centres undefined) [2-hydroxy-3-methoxybenzaldehyde {4-[(4-nitrophenyl)amino]-6-pyrrolidin-1-yl-1,3,5-triazin-2-yl}hydrazone], for which the IC50 is 1.64 µM.

In turn, `C=CCSC(N)=NN=CC1C=C(Br)C=C([N+](=O)[O-])C1=O` (centres undefined) [N''-[[(E)-(3-bromo-5-nitro-6-oxo-1-cyclohexa-2,4-dienylidene)methyl]amino]carbamimidothioic acid prop-2-enyl ester] registered an IC50 above 66.6 µM.

For the compound `Cc1cc(C)nc(NNC=C2C(=O)CC(c3ccc(F)cc3)CC2=O)n1` (centres undefined), the IC50 was above 66.6 µM.

The compound `CC(NO)C(=O)C(=CN1CCCCC1)CN1CCCCC1` (centres undefined) had an IC50 above 66.6 µM.

On to `N#CC(=C1C=CC(N=O)C(Cl)=C1)c1ccc(Cl)cc1` (centres undefined) [SMR001570423], for which the IC50 was above 66.6 µM.
